Reference: patent US20070117770A1, “Human ribosomal DNA (rDNA) and ribosomal RNA (rRNA) nucleic acids and uses thereof” (Cylene Pharmaceuticals, Inc., priority 2005, published 2007)

Assays:
[1] = molecular target: IKKα(h) (Homo sapiens, UniProt O15111); experiment: Protein kinase inhibition assay; assay type: biochemical; conditions: read-out: percent residual activity of IKKα(h)
Experimental: (§1) Certain compounds were tested for activity in protein kinase inhibition assays. All substrates were dissolved and diluted to working stocks in de-ionized water, apart from histone H1 (10× working stock in 20 mM MOPS pH 7.0), PDKtide (10× working stock in 50 mM Tris pH 7.0) ATF2 (which is typically stored at a 20× working stock in 50 mM Tris pH 7.5, 150 mM NaCl, 0.1 mM EGTA, 0.03% Brij-35, 50% glycerol, 1 mM benzamidine, 0.2 mM PMSF and 0.1% R-mercaptoethanol), KKLNRTLSFAEPG (SEQ ID NO:203) and RRRLSFAEPG (SEQ ID NO:204) (50 mM HEPES pH 7.4) and GGEEEEYFELVKKKK (SEQ ID NO:205) (20 mM MOPS pH 7.0). All kinases were pre-diluted to a 10× working concentration prior to addition into the assay. The composition of the dilution buffer for each kinase is detailed below.
(§2) In a final reaction volume of 25 μl, IKKa (h) (5-10 mU) is incubated with 8 mM MOPS pH 7.0, 0.2 mM EDTA, 200 μM peptide, 10 mM MgAcetate and [gamma-33P-ATP] (specific activity approx. 500 cpm/pmol, concentration as required). The reaction is initiated by the addition of the MgATP mix. After incubation for 40 minutes at room temperature, the reaction is stopped by the addition of 5 μl of a 3% phosphoric acid solution. 10 μl of the reaction is then spotted onto a P30 filtermat and washed three times for 5 minutes in 75 mM phosphoric acid and once in methanol prior to drying and scintillation counting.

[2] = molecular target: CDK5/p35(h) (Homo sapiens, UniProt Q00535); experiment: Protein kinase inhibition assay; assay type: biochemical; conditions: read-out: percent residual activity of CDK5/p35(h)
Chain of CDK5/p35(h) (Q00535 whole entry): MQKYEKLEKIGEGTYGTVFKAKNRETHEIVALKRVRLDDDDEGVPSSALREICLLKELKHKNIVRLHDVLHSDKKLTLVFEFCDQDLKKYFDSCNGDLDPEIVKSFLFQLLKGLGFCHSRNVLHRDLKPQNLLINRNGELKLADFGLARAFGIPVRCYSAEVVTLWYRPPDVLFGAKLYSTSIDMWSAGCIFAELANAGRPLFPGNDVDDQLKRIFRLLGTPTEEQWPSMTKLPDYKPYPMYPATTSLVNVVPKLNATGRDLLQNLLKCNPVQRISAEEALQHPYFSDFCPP
Chain of CDK5/p35(h) (Q15078 whole entry partner): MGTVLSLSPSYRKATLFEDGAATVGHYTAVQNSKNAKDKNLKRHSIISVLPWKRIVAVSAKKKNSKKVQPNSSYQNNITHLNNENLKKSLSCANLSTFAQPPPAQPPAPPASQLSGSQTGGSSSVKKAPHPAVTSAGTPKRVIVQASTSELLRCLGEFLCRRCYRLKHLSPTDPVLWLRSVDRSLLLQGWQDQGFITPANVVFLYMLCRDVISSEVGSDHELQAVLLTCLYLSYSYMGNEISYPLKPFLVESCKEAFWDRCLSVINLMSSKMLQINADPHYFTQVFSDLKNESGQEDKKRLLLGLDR
Experimental: as §1
as §2, with “CDK5/p35” for “IKKa”, “0.1 mg/ml histone H1,” for “200 μM peptide,”

[3] = molecular target: PDGFRβ(h) (Homo sapiens, UniProt P09619); experiment: Protein kinase inhibition assay; assay type: biochemical; conditions: read-out: percent residual activity of PDGFRβ(h)
Chain of PDGFRβ(h) (P09619 33-1106): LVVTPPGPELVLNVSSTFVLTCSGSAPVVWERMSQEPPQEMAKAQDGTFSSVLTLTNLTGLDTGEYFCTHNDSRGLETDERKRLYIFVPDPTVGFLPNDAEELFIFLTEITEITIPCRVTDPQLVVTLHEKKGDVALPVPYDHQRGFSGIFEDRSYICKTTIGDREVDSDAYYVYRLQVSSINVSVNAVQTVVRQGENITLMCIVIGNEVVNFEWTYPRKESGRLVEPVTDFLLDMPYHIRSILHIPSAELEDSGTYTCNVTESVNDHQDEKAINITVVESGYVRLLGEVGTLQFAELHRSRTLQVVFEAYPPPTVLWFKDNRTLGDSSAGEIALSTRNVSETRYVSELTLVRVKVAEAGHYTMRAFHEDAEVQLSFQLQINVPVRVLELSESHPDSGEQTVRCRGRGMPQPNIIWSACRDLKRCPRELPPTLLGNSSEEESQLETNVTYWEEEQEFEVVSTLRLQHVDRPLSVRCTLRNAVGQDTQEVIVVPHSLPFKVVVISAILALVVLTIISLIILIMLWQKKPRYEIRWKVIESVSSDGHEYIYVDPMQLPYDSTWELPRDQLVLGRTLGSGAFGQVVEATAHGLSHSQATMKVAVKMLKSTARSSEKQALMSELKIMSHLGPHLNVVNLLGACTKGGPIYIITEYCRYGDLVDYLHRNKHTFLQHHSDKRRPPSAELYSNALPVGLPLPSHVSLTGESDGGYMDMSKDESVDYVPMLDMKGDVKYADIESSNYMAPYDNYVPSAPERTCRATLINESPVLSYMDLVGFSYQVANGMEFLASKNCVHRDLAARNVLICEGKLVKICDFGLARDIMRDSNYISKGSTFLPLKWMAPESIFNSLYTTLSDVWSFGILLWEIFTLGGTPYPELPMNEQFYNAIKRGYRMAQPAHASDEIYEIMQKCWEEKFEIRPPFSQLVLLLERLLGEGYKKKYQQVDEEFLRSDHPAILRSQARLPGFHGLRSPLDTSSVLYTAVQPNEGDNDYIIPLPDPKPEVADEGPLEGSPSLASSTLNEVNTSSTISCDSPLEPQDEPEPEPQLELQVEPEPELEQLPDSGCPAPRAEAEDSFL
Experimental: as §1
as §2, with “PDGFRβ” for “IKKa”, “0.1 mg/ml poly(Glu, Tyr) 4:1, 10 mM MnCl2,” for “200 μM peptide,”, “Filtermat A” for “P30 filtermat”

[4] = molecular target: T1, nucleolin/HP pre-rRNA region (Homo sapiens, UniProt P19338); experiment: EMSA, nucleolin/HP ligand interaction; assay type: binding; conditions: nucleolin ~250 nM, 32P-labeled ligand 10 or 250 nM, 30 minutes (FIG. 1, FIG. 2)
T1 construct: without the N-terminal acidic stretches domain
T1 sequence (P19338 284-710 limits assumed): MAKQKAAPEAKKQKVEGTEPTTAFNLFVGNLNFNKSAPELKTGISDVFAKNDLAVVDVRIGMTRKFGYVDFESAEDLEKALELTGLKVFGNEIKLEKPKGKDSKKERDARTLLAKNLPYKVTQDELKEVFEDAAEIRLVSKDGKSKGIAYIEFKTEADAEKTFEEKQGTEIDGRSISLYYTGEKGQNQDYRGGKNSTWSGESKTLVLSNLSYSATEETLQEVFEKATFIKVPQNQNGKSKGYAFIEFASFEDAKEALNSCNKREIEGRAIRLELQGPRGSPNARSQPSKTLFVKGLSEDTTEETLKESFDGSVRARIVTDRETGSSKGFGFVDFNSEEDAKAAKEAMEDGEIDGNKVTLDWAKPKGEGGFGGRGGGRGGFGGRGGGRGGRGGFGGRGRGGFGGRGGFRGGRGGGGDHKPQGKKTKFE
Experimental: The following assays assessed effects of compounds on interactions between nucleolin and nucleic acid ligands capable of forming quadruplex (QP) and hairpin (HP) secondary structures. Nucleic acid ligands tested were a cMyc QP DNA having nucleotide sequence 5′-[…]-3′ (SEQ ID NO: 176) and a HP pre-rRNA region to which nucleolin binds, having the sequence 5′-[…]-3′ (SEQ ID NO: 177). In the assays, recombinant nucleolin (˜250 nM), which was fused to maltose binding protein and had the sequence under accession number NM_005381 without the N-terminal acidic stretches domain, was incubated with each of the two ^32P-labeled nucleic acid ligands (10 or 250 nM). Nucleolin and the nucleic acid ligand were incubated in the presence or absence of a test compound of Formula A-1, B-1, C-6 or C-7 in an incubation buffer (12.5 mM Tris, pH 7.6, 60 mM KCl, 1 mM MgCl2, 0.1 mM EDTA, 1 mM DTT, 5% glycerol, 0.1 mg/ml BSA) for 30 minutes at room temperature. Structures for A-1 and B-1 are shown above and structures for C-6 and C-7 are shown hereafter: [drawing 17] The resulting complexes were separated on a 6% DNA retardation gel using 0.5× TBE with 20 mM KCl as a running buffer (i.e., electrophoresis mobility shift assay (EMSA)).

[5] = molecular target: KDR(h) (Homo sapiens, UniProt P35968); experiment: Protein kinase inhibition assay; assay type: biochemical; conditions: read-out: percent residual activity of KDR(h)
Chain of KDR(h) (P35968 20-1356): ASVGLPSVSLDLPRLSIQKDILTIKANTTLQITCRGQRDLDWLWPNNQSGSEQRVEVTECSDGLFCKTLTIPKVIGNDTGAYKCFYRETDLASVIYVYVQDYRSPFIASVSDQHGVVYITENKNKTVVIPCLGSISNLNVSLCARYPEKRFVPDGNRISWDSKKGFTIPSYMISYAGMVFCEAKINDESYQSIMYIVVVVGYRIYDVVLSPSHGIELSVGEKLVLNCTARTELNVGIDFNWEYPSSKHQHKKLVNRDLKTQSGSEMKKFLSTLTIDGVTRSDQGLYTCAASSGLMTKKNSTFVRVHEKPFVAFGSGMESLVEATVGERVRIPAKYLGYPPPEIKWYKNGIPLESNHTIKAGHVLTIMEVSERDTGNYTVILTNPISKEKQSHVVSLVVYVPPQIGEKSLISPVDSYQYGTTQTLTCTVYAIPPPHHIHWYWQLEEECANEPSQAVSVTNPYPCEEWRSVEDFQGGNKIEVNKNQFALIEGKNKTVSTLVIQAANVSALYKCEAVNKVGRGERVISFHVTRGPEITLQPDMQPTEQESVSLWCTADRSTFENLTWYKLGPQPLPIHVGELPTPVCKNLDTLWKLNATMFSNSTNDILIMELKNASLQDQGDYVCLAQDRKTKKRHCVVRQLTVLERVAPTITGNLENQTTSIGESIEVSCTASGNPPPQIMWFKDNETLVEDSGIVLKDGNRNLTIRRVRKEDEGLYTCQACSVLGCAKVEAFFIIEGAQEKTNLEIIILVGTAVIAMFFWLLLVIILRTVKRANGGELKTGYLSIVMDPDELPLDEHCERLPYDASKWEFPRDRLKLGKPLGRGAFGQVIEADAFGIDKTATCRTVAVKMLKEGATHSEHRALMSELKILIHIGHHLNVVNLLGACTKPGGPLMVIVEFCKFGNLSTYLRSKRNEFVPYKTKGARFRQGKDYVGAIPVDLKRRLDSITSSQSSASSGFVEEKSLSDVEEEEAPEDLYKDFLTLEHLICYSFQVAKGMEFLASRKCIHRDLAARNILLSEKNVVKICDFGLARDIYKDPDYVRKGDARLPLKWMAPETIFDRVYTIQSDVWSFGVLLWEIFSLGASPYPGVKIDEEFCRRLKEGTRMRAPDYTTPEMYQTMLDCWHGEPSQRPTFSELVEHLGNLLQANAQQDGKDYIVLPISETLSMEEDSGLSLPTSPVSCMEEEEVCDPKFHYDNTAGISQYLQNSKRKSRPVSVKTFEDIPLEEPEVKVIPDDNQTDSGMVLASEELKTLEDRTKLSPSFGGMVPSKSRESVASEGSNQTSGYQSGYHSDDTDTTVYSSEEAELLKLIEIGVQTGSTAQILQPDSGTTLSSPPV
Experimental: as §1
as §2, with “KDR” for “IKKa”, “0.33 mg/ml myelin basic protein,” for “200 μM peptide,”, “[y-33P-ATP]” for “[gamma-33P-ATP]”

[6] = molecular target: PKCη(h) (Homo sapiens, UniProt P24723); experiment: Protein kinase inhibition assay; assay type: biochemical; conditions: read-out: percent residual activity of PKCη(h)
Chain of PKCη(h) (P24723 whole entry): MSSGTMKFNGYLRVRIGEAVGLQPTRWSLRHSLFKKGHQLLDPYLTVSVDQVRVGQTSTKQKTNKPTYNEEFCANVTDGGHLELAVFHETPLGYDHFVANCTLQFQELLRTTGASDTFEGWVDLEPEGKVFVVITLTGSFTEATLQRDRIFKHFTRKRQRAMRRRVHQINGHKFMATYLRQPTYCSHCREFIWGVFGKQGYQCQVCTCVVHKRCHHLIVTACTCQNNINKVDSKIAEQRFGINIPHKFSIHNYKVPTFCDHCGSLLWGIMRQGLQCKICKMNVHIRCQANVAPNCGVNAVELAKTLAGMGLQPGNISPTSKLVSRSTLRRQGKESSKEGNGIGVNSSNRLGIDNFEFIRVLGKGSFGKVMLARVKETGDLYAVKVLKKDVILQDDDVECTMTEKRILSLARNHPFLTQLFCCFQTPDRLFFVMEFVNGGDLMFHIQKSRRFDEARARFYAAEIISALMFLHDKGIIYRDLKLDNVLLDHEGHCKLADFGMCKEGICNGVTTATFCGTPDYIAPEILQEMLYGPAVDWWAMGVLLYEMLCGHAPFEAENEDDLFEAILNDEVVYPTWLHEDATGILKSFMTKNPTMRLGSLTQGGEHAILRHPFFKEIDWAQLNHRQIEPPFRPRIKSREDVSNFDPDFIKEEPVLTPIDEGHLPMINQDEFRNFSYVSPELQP
Experimental: as §1
In a final reaction volume of 25 μl, PKCη (h) (5-10 mU) is incubated with 20 mM HEPES pH 7.4, 0.03% Triton X-100, 0.1 mM CaCl2, 0.1 mg/ml phosphatidylserine, 10 μg/ml diacylglycerol, 50 μM ERMRPRKRQGSVRRRV (SEQ ID NO:234), 10 mM MgAcetate and [gamma-33P-ATP] (specific activity approx. 500 cpm/pmol, concentration as required). The reaction is initiated by the addition of the MgATP mix. After incubation for 40 minutes at room temperature, the reaction is stopped by the addition of 5 μl of a 3% phosphoric acid solution. […]

Chain of IKKα(h) (O15111 whole entry): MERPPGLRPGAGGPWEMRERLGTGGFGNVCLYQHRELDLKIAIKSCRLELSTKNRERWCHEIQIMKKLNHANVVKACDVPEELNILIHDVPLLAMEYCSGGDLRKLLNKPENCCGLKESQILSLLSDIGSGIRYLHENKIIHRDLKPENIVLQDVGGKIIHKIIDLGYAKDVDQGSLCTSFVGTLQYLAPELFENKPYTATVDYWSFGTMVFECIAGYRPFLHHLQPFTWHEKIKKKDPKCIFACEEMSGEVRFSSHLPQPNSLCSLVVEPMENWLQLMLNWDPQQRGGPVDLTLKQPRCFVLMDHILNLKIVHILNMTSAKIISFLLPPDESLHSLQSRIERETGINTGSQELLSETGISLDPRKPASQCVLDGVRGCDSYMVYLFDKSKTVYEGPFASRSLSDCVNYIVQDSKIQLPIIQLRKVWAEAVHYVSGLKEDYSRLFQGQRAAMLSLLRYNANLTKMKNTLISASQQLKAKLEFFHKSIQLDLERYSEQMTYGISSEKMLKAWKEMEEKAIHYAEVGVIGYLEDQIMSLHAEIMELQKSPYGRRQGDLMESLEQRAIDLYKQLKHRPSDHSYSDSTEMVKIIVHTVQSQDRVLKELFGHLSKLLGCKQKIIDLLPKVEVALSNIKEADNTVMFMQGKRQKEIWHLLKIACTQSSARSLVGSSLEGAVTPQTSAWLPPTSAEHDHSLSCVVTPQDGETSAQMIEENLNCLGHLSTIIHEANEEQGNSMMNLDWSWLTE

remaining activity at 2.5 µM [1] [%]	remaining activity at 2.5 µM [2] [%]	remaining activity at 2.5 µM [3] [%]	remaining activity at 2.5 µM [5] [%]	remaining activity at 2.5 µM [6] [%]	Structure (SMILES)	interference with the nucleolin/HP ligand interaction [4]
68	83	103	90	80	CN1CCCC1CCNC(=O)c1cn2c3c(c(N4CCC(c5cnccn5)C4)c(F)cc3c1=O)Oc1cc3ccccc3cc1-2 (stereo not drawn) [Compound A-1]	did not significantly interfere with the nucleolin/HP ligand interaction
118	104	103	95	80	CC(=O)N1CCN(c2ccc3c(=O)c(C(=O)NCCN4CCCC4)c4n(C)c5ccccc5n4c3n2)CC1 [Compound B-1]	did not significantly interfere with the nucleolin/HP interaction
